“Also recorded” adds a separate entry of the source.
What was measured:
[1] = system: snake venom phosphodiesterase; assay: Stability to the action of snake venom phosphodiesterase; assay type: in vitro ADME
Description: Determination of (2'-5')oligoadenylates and analogues stability to the action of snake venom phosphodiesterase
Upon entering an organism 2'-5'A3 and the analogues are quickly hydrolyzed to monomeric compound(s). Prior to administration of 2'-5'A3 analogues in vivo to animal, it was considered necessary to determine their stability towards snake venom phosphodiesterase in comparison to the parent 2'-5'A3.
The solution of 3 μg of the snake venom phosphodiesterase (Boehringer Mannheim cat. No. 108260) in 30 μl of 0.1 M Tris HCl buffer, containing 0.002 M MgCl2 (pH 8.78) is added to the solution of 4-5·10^-7 M trimer in 100 μl of the same buffer. The solution was left standing at 20° C. At regular intervals, 10 μl samples were taken, heated at 90° C. for 1 minute and preparative thin layer chromatography was performed on the Silufole™ plates, using a 7:1:2 mixture of isopropanol:aqueous ammonia:water.
The spot, corresponding to the initial trimer, was cut out, the substance was extracted with 2 ml of 0.5% solution of the dodecylsulfate sodium salt solution for 2 hours, and the optical density of the solution was determined at 260 nm.

[2] = system: α-interferon and γ-interferon; assay: Immune system of monkeys: α- and γ-interferon; assay type: in vivo, Macaque Rh. monkeys
Description: Immunosuppressive activity of the prototype 2'-5'A3 and two analogues (2'-5')A2 Ar-epoxy and (2'-5')A2 A^l-epoxy were investigated in monkeys. The experiments were performed on 4 year-old Macaque Rh. monkeys. The levels of the principal subpopulations of T-lymphocytes, IgA, IgG, IgM and the amount of α- and γ-interferon and interleukin II after administration (2'-5')olygoadenylate and its analogies at the concentration of 50 and 25 μg/kg of the body weight was investigated.
Serum levels of IgG, IgA, IgM were determined by radial immunodiffusion using antisera against human immunoglobulin A, M, G. The amount of interferon and interleukine-II were determined by the method of Lopez-Botet M. et al., 1982.

[3] = system: T-killers; assay: T-killers in monkeys after kidney transplantation; assay type: in vivo, Macaque Rh. monkeys; conditions: second group, 50 μg/kg every other day
Description: FLOW CYTOFLUOROGRAFIC ANALYSIS OF LYMPHOCYTE SUBSETS
Blood samples (100 μl of whole blood) were placed into a 12×17 tube. To these cells 20 μl of purified monoclonal antibodies were added with specificity for human cytotoxic/suppressor cells anti-Leu-2a (CD8), human helper/inducer anti-Leu-3a (CD4) and FITC conjugated monoclonal antibodies with specificity for natural killer cells-anti-Leu11c (CD16) (Becton Dickinson, San Jose). After 30 minutes incubation on ice, the cells were washed once and 20 μl of goat-antimouse chain phycoerythrin (Sigma P1286) conjugate were added to the tube with anti-Leu-2a and anti-Leu-3a monoclonal antibodies.
After erythrocyte lysing with FACS lysing solution (Becton Dickinson, San Jose) the cells were analyzed on FACScan flow cytometer (Becton Dickinson, San Jose) with scatter gate set on lymphocyte fraction.
The experiments were performed on 4 year-old Macaque Rh. monkeys. Each cohort consisted of 3 animals. […] The results of the experiments were evaluated clinically: by the presence or absence of urination from the ureterocutaneostoma.
After intravenous anesthesia with Ketalar®, an extraperitoneal access to the left kidney was performed through layer by layer cuts to the left lumbar region. The kidney was excised from the surrounding tissues. […]

[4] = single IV 25 μg/kg, day 0 (baseline)
[5] = single IV 50 μg/kg, day 0 (baseline)

Substance: Adenylyl (2'-5')adenylyl (2'-5')-9-(2,3-anhydro-β-D-ribofuranosyl) adenine disodium salt [(2'-5')A2 Ar-epoxy]
- T 1/2 (time for optical density of initial trimer to decrease by 50%) ([1]; 20° C., 0.1 M Tris HCl, 0.002 M MgCl2, pH 8.78): 16.0 h
- stability / resistance to phosphodiesterase ([1]; in words, disodium salt): significantly more resistant towards hydrolysis by phosphodiesterase; also recorded: more resistant to phosphodiesterase than (2'-5')A2 A^l-epoxy
- resistance to snake venom phosphodiesterase relative to prototype 2'-5'A3 ([1]; vs 2'-5'A3): 35 fold
- effect on interferon, in words ([2]; monkeys, single IV, two weeks, disodium salt): stimulates the level of α-interferon and γ-interferon in blood lymphocytes for a period of two weeks; also recorded: the quantity of α-interferon in blood plasma tends to normalize; also recorded: does not suppress the production of γ-interferon
- α-interferon of lymphocytes [2, 4]: 16 Units per 10,000 lymphocytes
- α-interferon of plasma [2, 4]: 8 Units per 10,000 lymphocytes
- γ-interferon of lymphocytes [2, 4]: 4 Units per 10,000 lymphocytes
- α-interferon of lymphocytes ([2]; single IV 25 μg/kg, day 1): 32 Units per 10,000 lymphocytes
- α-interferon of plasma ([2]; single IV 25 μg/kg, day 1): 8 Units per 10,000 lymphocytes
- γ-interferon of lymphocytes ([2]; single IV 25 μg/kg, day 1): 16 Units per 10,000 lymphocytes
- α-interferon of lymphocytes ([2]; single IV 25 μg/kg, day 2): 32 Units per 10,000 lymphocytes
- α-interferon of plasma ([2]; single IV 25 μg/kg, day 2): 4 Units per 10,000 lymphocytes
- γ-interferon of lymphocytes ([2]; single IV 25 μg/kg, day 2): 16 Units per 10,000 lymphocytes
- α-interferon of lymphocytes ([2]; single IV 25 μg/kg, day 12): 32 Units per 10,000 lymphocytes
- α-interferon of plasma ([2]; single IV 25 μg/kg, day 12): 4 Units per 10,000 lymphocytes
- γ-interferon of lymphocytes ([2]; single IV 25 μg/kg, day 12): 16 Units per 10,000 lymphocytes
- α-interferon of lymphocytes ([2]; single IV 25 μg/kg, day 21): 16 Units per 10,000 lymphocytes
- α-interferon of plasma ([2]; single IV 25 μg/kg, day 21): 4 Units per 10,000 lymphocytes
- γ-interferon of lymphocytes ([2]; single IV 25 μg/kg, day 21): 8 Units per 10,000 lymphocytes
- α-interferon of lymphocytes [2, 5]: 32 Units per 10,000 lymphocytes
- α-interferon of plasma [2, 5]: 16 Units per 10,000 lymphocytes
- γ-interferon of lymphocytes [2, 5]: 4 Units per 10,000 lymphocytes
- α-interferon of lymphocytes ([2]; single IV 50 μg/kg, day 1): 32 Units per 10,000 lymphocytes
- α-interferon of plasma ([2]; single IV 50 μg/kg, day 1): 32 Units per 10,000 lymphocytes
- γ-interferon of lymphocytes ([2]; single IV 50 μg/kg, day 1): 8 Units per 10,000 lymphocytes
- α-interferon of lymphocytes ([2]; single IV 50 μg/kg, day 2): 64 Units per 10,000 lymphocytes
- α-interferon of plasma ([2]; single IV 50 μg/kg, day 2): 4 Units per 10,000 lymphocytes
- γ-interferon of lymphocytes ([2]; single IV 50 μg/kg, day 2): 32 Units per 10,000 lymphocytes
- α-interferon of lymphocytes ([2]; single IV 50 μg/kg, day 12): 64 Units per 10,000 lymphocytes
- α-interferon of plasma ([2]; single IV 50 μg/kg, day 12): 4 Units per 10,000 lymphocytes
- γ-interferon of lymphocytes ([2]; single IV 50 μg/kg, day 12): 32 Units per 10,000 lymphocytes
- α-interferon of lymphocytes ([2]; single IV 50 μg/kg, day 21): 32 Units per 10,000 lymphocytes
- α-interferon of plasma ([2]; single IV 50 μg/kg, day 21): 4 Units per 10,000 lymphocytes
- γ-interferon of lymphocytes ([2]; single IV 50 μg/kg, day 21): 8 Units per 10,000 lymphocytes
- T-killers, in words [3]: Analogous suppression effect

— US5571799A, “(2'-5') oligoadenylate analogues useful as inhibitors of host-v5.-graft response” (Basco, Ltd., priority 1994, dated 1996)
